Patent publication US10682371B2, “Small molecule conjugates specifically activated in tumor microenvironment for targeting and use thereof” (priority 2014, dated 2020)
Read-outs that look alike come from different tables or passages of the source.

Tests used:
D121 lung tumor cells = format: in vivo, C57 mice; details: immunized C57 mice, D121, drugs 13.2 μmol/kg, weekly for 4 weeks, Day 18
Protocol: (§1) 1) D121 lung tumor cells were purchased from ATCC. Cells were cultivated in DMEM culture solution containing 10% fetal bovine serum at 37° C. and 5% CO2. The cells were passaged for every three days and cells within the 15th passage were used.
(§2) 2) Tumor immunization. 5×10^5 D121 lung cancer cells (purchased from ATCC) which were killed by irradiation were intraperitoneally injected to mice. The mice were injected for 3 times, once every two weeks. After immunization, mice were injected with tumor cells and the drugs were administered weekly for 4 weeks.
3) Production of tumor. At day 32, 10^6 live lung tumor cells were subcutaneously injected to the back of the C57 mice immunized by tumor. Treatment began when the tumor grew to 0.3-0.4 cm.
as §2, with “4 weeks. In table 16 below the immune group was immuned with D121 lung tumor cells and the group without dead D121 lung tumor cells was injected with physiological saline as controls.” for “4 weeks.”
3) Production of tumor. After immunization (4 weeks later), 10^6 live lung tumor cells were subcutaneously injected to the back of the C57 mice immunized by tumor. Treatment began when the tumor grew to 0.3-0.4 cm. Tumor size (mm^3) were noted and tumor inhibition rates were calculated.
as §2, with “4 weeks. In the table below the immune group was immuned with D121 lung tumor cells and the group without dead D121 lung tumor cells was injected with physiological saline as controls.” for “4 weeks.”
3) Production of tumor. At day 32, 10^6 live D121 lung tumor cells were subcutaneously injected to the back of the C57 mice immunized by tumor. Treatment began when the tumor grew to 0.3-0.4 cm.
1) D121 lung tumor cells were purposed from ATCC. Cells were cultivated in DMEM culture solution containing 10% fetal bovine serum at 37° C. and 5% CO2. The cells were passaged for every three days and cells within the 15th passage were used.

tumor CD8+ T cells = format: in vivo, C57 mice; details: CD8 positive cells in CD45 positive cells of tumor, flow cytometry, drugs 13.2 μmol/kg
Protocol: (§3) 4) Analysis on tumor CD8+ T cells. The tumor tissue was homogenated and individual cells in the tumor were filtered, separated and washed by buffer twice, then cultivated with the leucocyte common antigen CD45-PE and CD8-FITC marked antibodies for 1 hour at ambient temperature. The cells were washed by phosphate buffer containing 1% fetal bovine serum twice and then analyzed for the ratio of the T lymphocyte antigen (CD8) positive cells in the leucocyte common antigen (CD45) positive cells by flow cytometry.
as §3, with “CD45-PE and T-lymphocyte antigen CD8-FITC marked” for “CD45-PE and CD8-FITC marked”, “flow cytometry. Increasement of the ratio indicates increased T lymphocyte cells and thus the animal immunity against the tumor was improved.” for “flow cytometry.”
as §3, with “cytometry. Increasement of the ratio indicates increased T lymphocyte cells and thus the animal immunity against the tumor was improved.” for “cytometry.”

[1] = tested on: Human prostate cancer PC-3 cells / Panc-1 cells; assay: Tumor treatment in nude mice (PC-3 cells purchased, Panc-1 cells injected; Examples 22, 32, 42); format: in vivo; details: Table 38, nude mice, IV once weekly for four weeks, B1-B4 25 mg/kg, Docetaxel […]
Protocol: as §1, with “Human prostate cancer PC-3” for “D121 lung tumor”, “from American type culture collection (ATCC) and identified according the specification provided by” for “from”
2) Production of tumor. 5×10^6Panc-1 cells were subcutaneously injected to the back of the nude mice. Mice were randomly grouped after the tumor reached at least 100 mm^3. Then treatment began and the day on which the treatment began was day 1.
The control group was administered by physiological saline. Drugs were administered once weekly for four weeks.
According to the clinical application of B1, B2, B3 and B4, drugs were intravenously injected (IV). […] The control group was administered by physiological saline. Drugs were administered once weekly for four weeks.

[2] = tested on: Human prostate cancer PC-3 cells; assay: Tumor treatment in nude mice, PC-3 model (Example 51); format: in vivo; details: Table 48, nude mice, PC-3, IV once weekly for four weeks, D1-D4 25 mg/kg, Docetaxel […]
Protocol: as §1, with “Human prostate cancer PC-3” for “D121 lung tumor”, “from American type culture collection (ATCC) and identified according the specification provided by” for “from”
2) Production of tumor. 5×10^6PC-3 cells were subcutaneously injected to the back of the nude mice. Mice were randomly grouped after the tumor reached at least 100 mm^3. Then treatment began and the day on which the treatment began was day 1.
According to the clinical application of D1, D2, D3 and D4, drugs were intravenously injected (IV). […]. The control group was administered by physiological saline. Drugs were administered once weekly for four weeks.

4T1 cells = assay: BALB/C mice model for tumor metastasis (4T1, lung metastases); format: in vivo; details: BALB/C mice, 4T1, lung metastases day 27, IV every three days for 4 times
Protocol: as §1, with “4T1” for “D121 lung tumor”, “from American type culture collection (ATCC) and identified according the specification provided by” for “from”
2) Production of tumor metastasis. 10^6 […] were subcutaneously injected to the back of the BALB/C mice. Mice were randomly grouped after the tumor grew to about 1.5 cm. The subcutaneous tumor was removed by surgery and drug treatment began. Mice were killed after anesthesia on day 27. The whole lung was taken out and put into Bouin's solution for staining. The number of the tumor metastasized to lung was counted with anatomical microscope.
(§4) The control group was administered by physiological saline. Drugs were administered once for every three days for 4 times.
as §4
According to the clinical application of B1, B2, B3 and B4, drugs were intravenously injected (IV). […] The control group was administered by physiological saline. Drugs were administered once for every three days for 4 times.
According to the clinical application of D1, D2, D3 and D4, drugs were intravenously injected (IV). […] The control group was administered by physiological saline. Drugs were administered once for every three days for 4 times.

[3] = Table 39, PDL1-antibody 5 μg/kg
[4] = Table 49, PDL1 antibody 5 μg/kg
[5] = Table 40, B1-B4 17.6 μmol/kg, Docetaxel 3 μmol/kg
[6] = Table 50, D1-D4 25 mg/kg, Docetaxel 4.2 mg/kg

Docetaxel [reference compound]
Size of tumor (mm^3) Day 18 (D121 lung tumor cells; [3]): 1242.30 ± 359.48 mm^3 | inhibitory rate on tumor % Day 18 (D121 lung tumor cells; [3]): 23.33% | Size of tumor (mm^3) Day 18 (D121 lung tumor cells; [4]): 1268.64 mm^3 | inhibitory rate on tumor % Day 18 (D121 lung tumor cells; [4]): 11.0% | CD8: CD45 (%) (tumor CD8+ T cells; [3]): 5.4% | CD8: CD45 (%) (tumor CD8+ T cells; [4]): 6.9% | Size of tumor (mm^3) Day 10 ([1]; Day 10): 254.75 ± 146.55 mm^3 | inhibitory rate on tumor Day 10 ([1]; Day 10): 11.1 | Size of tumor (mm^3) Day 24 ([1]; Day 24): 263.65 ± 184.67 mm^3 | inhibitory rate on tumor Day 24 ([1]; Day 24): 30.7 | Size of tumor (mm^3) Day 10 ([2]; Day 10): 168.66 ± 79.43 mm^3 | inhibitory rate on tumor Day 10 ([2]; Day 10): 51.3 | Size of tumor (mm^3) Day 24 ([2]; Day 24): 313.75 ± 157.42 mm^3 | inhibitory rate on tumor Day 24 ([2]; Day 24): 57.3 | Inhibitory rate on metastasis (4T1 cells; [5]): 32.5 | Number of metastasized tumor (4T1 cells; [5]): 85 ± 17 | Inhibitory rate on metastasis (4T1 cells; [6]): 89.7 | Number of metastasized tumor (4T1 cells; [6]): 156 ± 24
